Assay [1] deals with T1, human factor XIa (Homo sapiens, UniProt P03951).
T1 construct: purchased Kordia
As to the kind of experiment: Measurement of FXIa inhibition (fluorogenic peptide substrate, AMC cleavage). It is filed as biochemical. To be noted: factor XIa from Kordia 0.45 nM; substrate Boc-Glu(OBzl)-Ala-Arg-AMC 10 μM; 30 min at 22° C.; in some cases averages from multiple determinations. The protocol: The factor XIa inhibition of the substances according to the invention is determined using a biochemical test system which utilizes the reaction of a peptidic factor XIa substrate to determine the enzymatic activity of human factor XIa. Here, factor XIa cleaves from the peptic factor XIa substrate the C-terminal aminomethylcoumarin (AMC), the fluorescence of which is measured. The determinations are conducted in microtitre plates.
Test substances are dissolved in dimethyl sulfoxide and serially diluted in dimethyl sulfoxide (3000 μM to 0.0078 μM; resulting final concentrations in the test: 50 μM to 0.00013 μM). 1 μl of the diluted substance solutions is placed into each of the wells of white microtitre plates from Greiner (384 wells). 20 μl of assay buffer (50 mM of Tris/HCl pH 7.4; 100 mM of sodium chloride; 5 mM of calcium chloride; 0.1% of bovine serum albumin) and 20 μl of factor XIa from Kordia (0.45 nM in assay buffer) are then added successively. After 15 min of incubation, the enzyme reaction is started by addition of 20 μl of the factor XIa substrate Boc-Glu(OBzl)-Ala-Arg-AMC dissolved in assay buffer (10 μM in assay buffer) from Bachem, the mixture is incubated at room temperature (22° C.) for 30 min and fluorescence is then measured (excitation: 360 nm, emission: 460 nm). The measured emissions of the test batches with test substance are compared to those of control batches without test substance (only dimethyl sulfoxide instead of test substance in dimethyl sulfoxide), and IC50 values are calculated from the concentration/activity relationships. Activity data from this test are given in Table A below (in some cases as averages from multiple individual determinations): […]

The target of assay [2] is T2, human plasma kallikrein (Homo sapiens, UniProt P03952).
T2 construct: purchased Kordia
Nature of the assay: Determination of the plasma kallikrein activity (fluorogenic peptide substrate, AMC cleavage). To be noted: plasma kallikrein from Kordia 0.6 nM; substrate H-Pro-Phe-Arg-AMC 10 μM; 30 min at 22° C.; in some cases averages from multiple determinations. It is filed as biochemical. On the procedure:
To determine the plasma kallikrein inhibition of the substances according to the invention, a biochemical test system is used which utilizes the reaction of a peptidic plasma kallikrein substrate to determine the enzymatic activity of human plasma kallikrein. Here, plasma kallikrein cleaves from the peptic plasma kallikrein substrate the C-terminal aminomethylcoumarin (AMC), the fluorescence of which is measured. The determinations are conducted in microtitre plates.
Test substances are dissolved in dimethyl sulfoxide and serially diluted in dimethyl sulfoxide (3000 μM to 0.0078 μM; resulting final concentrations in the test: 50 μM to 0.00013 μM). 1 μl of the diluted substance solutions is placed into each of the wells of white microtitre plates from Greiner (384 wells). 20 μl of assay buffer (50 mM Tris/HCl pH 7.4; 100 mM sodium chloride solution; 5 mM calcium chloride solution; 0.1% of bovine serum albumin) and 20 μl of plasma kallikrein from Kordia (0.6 nM in assay buffer) are then added successively. After 15 min of incubation, the enzyme reaction is started by addition of 20 μl of the substrate H-Pro-Phe-Arg-AMC dissolved in assay buffer (10 μM in assay buffer) from Bachem, the mixture is incubated at room temperature (22° C.) for 30 min and fluorescence is then measured (excitation: 360 nm, emission: 460 nm). The measured emissions of the test batches with test substance are compared to those of control batches without test substance (only dimethyl sulfoxide instead of test substance in dimethyl sulfoxide), and IC50 values are calculated from the concentration/activity relationships. Activity data from this test are given in Table B below (in some cases as averages from multiple individual determinations): […]

pIC50: −log10 of the molar value.

T2 sequence (P03952 391-638 limits assumed): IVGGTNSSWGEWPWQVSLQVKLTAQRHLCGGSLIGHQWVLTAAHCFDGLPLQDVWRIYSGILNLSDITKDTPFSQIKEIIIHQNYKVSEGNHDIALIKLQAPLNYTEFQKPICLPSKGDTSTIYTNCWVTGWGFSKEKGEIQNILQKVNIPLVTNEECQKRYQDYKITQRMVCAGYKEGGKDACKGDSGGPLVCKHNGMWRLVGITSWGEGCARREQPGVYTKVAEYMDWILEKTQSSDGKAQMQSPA
T2 sequence (P03952 20-390 partner limits assumed): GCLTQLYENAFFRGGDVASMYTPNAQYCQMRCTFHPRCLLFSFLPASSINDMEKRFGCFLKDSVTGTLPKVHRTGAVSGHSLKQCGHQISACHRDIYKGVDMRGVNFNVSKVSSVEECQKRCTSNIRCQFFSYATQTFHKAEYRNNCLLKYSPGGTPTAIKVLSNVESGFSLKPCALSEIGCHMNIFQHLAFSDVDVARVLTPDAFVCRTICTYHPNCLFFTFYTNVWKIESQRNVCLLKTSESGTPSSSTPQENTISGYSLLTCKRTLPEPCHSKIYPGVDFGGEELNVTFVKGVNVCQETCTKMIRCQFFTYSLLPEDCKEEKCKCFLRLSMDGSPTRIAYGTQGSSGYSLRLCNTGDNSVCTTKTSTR
T1 sequence (P03951 388-625 limits assumed): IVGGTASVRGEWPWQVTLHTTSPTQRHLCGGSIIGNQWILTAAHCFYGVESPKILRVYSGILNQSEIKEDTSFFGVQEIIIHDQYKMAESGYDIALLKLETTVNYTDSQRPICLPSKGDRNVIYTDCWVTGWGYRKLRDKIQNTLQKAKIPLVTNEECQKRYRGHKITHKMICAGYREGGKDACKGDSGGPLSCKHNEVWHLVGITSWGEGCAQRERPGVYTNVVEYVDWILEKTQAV
T1 sequence (P03951 19-387 partner limits assumed): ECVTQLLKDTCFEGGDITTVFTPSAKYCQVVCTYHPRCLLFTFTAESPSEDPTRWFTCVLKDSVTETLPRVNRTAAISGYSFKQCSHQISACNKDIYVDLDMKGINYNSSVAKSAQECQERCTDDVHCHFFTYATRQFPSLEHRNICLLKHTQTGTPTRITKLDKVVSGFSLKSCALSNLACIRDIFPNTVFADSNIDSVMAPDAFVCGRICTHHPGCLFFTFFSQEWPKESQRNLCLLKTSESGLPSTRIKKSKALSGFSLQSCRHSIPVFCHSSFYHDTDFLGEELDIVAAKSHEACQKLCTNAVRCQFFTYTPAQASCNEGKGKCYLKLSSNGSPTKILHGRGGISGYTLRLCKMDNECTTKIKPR

Consider `COCCC(C(=O)Nc1ccc2nn(C)cc2c1)n1cc(OC)c(-c2cc(Cl)ccc2OCC(F)(F)F)cc1=O` (racemic) [Example 5, 2-{4-[5-Chloro-2-(2,2,2-trifluoroethoxy)phenyl]-5-methoxy-2-oxopyridin-1(2H)-yl}-4-methoxy-N-(2-methyl-2H-indazol-5-yl)butanamide], for which the pIC50 (in general, −log10 of the IC50, conventionally taken in molar units) in assay [1] is 8.39; in assay [2], 7.48.

On to `COc1cn(C(C[C@@H]2CCCCO2)C(=O)Nc2ccc3nn(C)cc3c2)c(=O)cc1-c1cc(Cl)ccc1OCC(F)(F)F` (stereo partly drawn) [Example 51, 2-{4-[5-Chloro-2-(2,2,2-trifluoroethoxy)phenyl]-5-methoxy-2-oxopyridin-1(2H)-yl}-N-(2-methyl-2H-indazol-5-yl)-3-[(2S)-tetrahydro-2H-pyran-2-yl]propanamide], for which the figures for the pIC50 in assay [1] and in assay [2] were 8.22 and 7.19, respectively.

Consider `COc1cn(C(CCOC(C)(C)C)C(=O)Nc2ccc3nn(C)cc3c2)c(=O)cc1-c1cc(Cl)ccc1OCC(F)(F)F` (racemic) [Example 9, 4-tert-Butoxy-2-{4-[5-chloro-2-(2,2,2-trifluoroethoxy)phenyl]-5-methoxy-2-oxopyridin-1(2H)-yl}-N-(2-methyl-2H-indazol-5-yl)butanamide], for which the pIC50 in assay [1] was 7.85; in assay [2] it was 7.24.

Take `COc1cn(C(C[C@@H]2CCCCO2)C(=O)Nc2ccc(C(=O)O)s2)c(=O)cc1-c1cc(Cl)ccc1OCC(F)(F)F` (stereo partly drawn) [Example 72, 5-({2-{4-[5-Chloro-2-(2,2,2-trifluoroethoxy)phenyl]-5-methoxy-2-oxopyridin-1(2H)-yl}-3-[(2S)-tetrahydro-2H-pyran-2-yl]propanoyl}amino)thiophene-2-carboxylic acid]: the pIC50 in assay [1] was 8.80; in assay [2], 7.62.

Take `CNC(=O)c1ccc(NC(=O)C(C[C@@H]2CCCCO2)n2cc(OC)c(-c3cc(Cl)ccc3OCC(F)(F)F)cc2=O)cn1` (stereo partly drawn) [Example 52, 5-[(2-{4-[5-Chloro-2-(2,2,2-trifluoroethoxy)phenyl]-5-methoxy-2-oxopyridin-1(2H)-yl}-3-[(2S)-tetrahydro-2H-pyran-2-yl]propanoyl)amino]-N-methylpyridine-2-carboxamide]: the pIC50 in assay [1] was 8.29; in assay [2], 7.09.

Consider `COc1cn(C(C[C@H](C)OC)C(=O)Nc2ccc(C(N)=O)nc2)c(=O)cc1-c1cc(Cl)ccc1OCC(F)(F)F` (stereo partly drawn) [Example 56, 5-[[(4S)-2-[4-[5-Chloro-2-(2,2,2-trifluoroethoxy)phenyl]-5-methoxy-2-oxo-1-pyridyl]-4-methoxypentanoyl]amino]pyridine-2-carboxamide], for which the values for the pIC50 in assay [1] and in assay [2] were 8.15 and 6.92, respectively.

On to `COc1cn(C(CC2COCCO2)C(=O)Nc2ccc(C(N)=O)c(F)c2)c(=O)cc1-c1cc(Cl)ccc1OCCF` (stereo not drawn) [Example 47, 4-{[2-{4-[5-Chloro-2-(2-fluoroethoxy)phenyl]-5-methoxy-2-oxopyridin-1(2H)-yl}-3-(1,4-dioxan-2-yl)propanoyl]amino}-2-fluorobenzamide], for which the pIC50 in assay [1] was 7.54; in assay [2], 6.51.

Consider `COc1cn(C(CC2COCCO2)C(=O)Nc2ccc(C(=O)O)cc2)c(=O)cc1-c1cc(Cl)ccc1OCCF` (stereo not drawn) [Example 44, 4-{[2-{4-[5-Chloro-2-(2-fluoroethoxy)phenyl]-5-methoxy-2-oxopyridin-1(2H)-yl}-3-(1,4-dioxan-2-yl)propanoyl]amino}benzoic acid], for which the pIC50 in assay [1] was 8.52; in assay [2], 6.49.

Turning to `CNC(=O)c1ccc(NC(=O)C(CCOC)n2cc(OC)c(-c3cc(Cl)ccc3OCC(F)(F)F)cc2=O)cn1` (racemic) [Example 4, 5-[(2-{4-[5-Chloro-2-(2,2,2-trifluoroethoxy)phenyl]-5-methoxy-2-oxopyridin-1(2H)-yl}-4-methoxybutanoyl)amino]-N-methylpyridine-2-carboxamide], the figures for the pIC50 in assay [1] and in assay [2] were 8.19 and 7.31, respectively.

For the molecule `COc1cn(C(CC2COCCO2)C(=O)Nc2ccc(C(N)=O)c(F)c2)c(=O)cc1-c1cc(Cl)ccc1OCC(F)F` (stereo not drawn) [Example 32, 4-{[2-{4-[5-Chloro-2-(2,2-difluoroethoxy)phenyl]-5-methoxy-2-oxopyridin-1(2H)-yl}-3-(1,4-dioxan-2-yl)propanoyl]amino}-2-fluorobenzamide], the results for the pIC50 in assay [1] and in assay [2] were 8.01 and 6.80, respectively.

`COc1cn(C(CCOC(C)(C)C)C(=O)Nc2ccc3nc(C(=O)O)cn3c2)c(=O)cc1-c1cc(Cl)ccc1OCC(F)(F)F` (racemic) [Example 73, 6-{[4-tert-Butoxy-2-{4-[5-chloro-2-(2,2,2-trifluoroethoxy)phenyl]-5-methoxy-2-oxopyridin-1(2H)-yl}butanoyl]amino}imidazo[1,2-a]pyridine-2-carboxylic acid]: the negative-log IC50 (pIC50) is 8.70 in assay [1] and 7.74 in assay [2].

As to `COc1cn(C(CC2COCCO2)C(=O)Nc2ccc(C(N)=O)nc2)c(=O)cc1-c1cc(Cl)ccc1OCC(F)(F)F` (stereo not drawn) [Example 18, 5-{[2-{4-[5-Chloro-2-(2,2,2-trifluoroethoxy)phenyl]-5-methoxy-2-oxopyridin-1(2H)-yl}-3-(1,4-dioxan-2-yl)propanoyl]amino}pyridine-2-carboxamide], the pIC50 is 8.49 in assay [1] and 7.26 in assay [2].

Consider `CNC(=O)c1ccc(NC(=O)C(CC2COCCO2)n2cc(OC)c(-c3cc(Cl)ccc3OCC(F)(F)F)cc2=O)cn1` (stereo not drawn) [Example 19, 5-{[2-{4-[5-Chloro-2-(2,2,2-trifluoroethoxy)phenyl]-5-methoxy-2-oxopyridin-1(2H)-yl}-3-(1,4-dioxan-2-yl)propanoyl]amino}-N-methylpyridine-2-carboxamide], for which the results for the pIC50 in assay [1] and in assay [2] were 8.47 and 7.42, respectively.

In the case of `COc1cn(C(CCOC(C)(C)C)C(=O)Nc2ccc(C(N)=O)nc2)c(=O)cc1-c1cc(Cl)ccc1OCC(F)F` (racemic) [Example 27, 5-[(4-tert-Butoxy-2-{4-[5-chloro-2-(2,2-difluoroethoxy)phenyl]-5-methoxy-2-oxopyridin-1(2H)-yl}butanoyl)amino]pyridine-2-carboxamide], the pIC50 was 7.74 in assay [1] and 7.02 in assay [2].

In the case of `COc1cc(NC(=O)C(C[C@@H]2CCCCO2)n2cc(OC)c(-c3cc(Cl)ccc3OCC(F)(F)F)cc2=O)ccc1C(=O)O` (stereo partly drawn) [Example 76, 4-({2-{4-[5-Chloro-2-(2,2,2-trifluoroethoxy)phenyl]-5-methoxy-2-oxopyridin-1(2H)-yl}-3-[(2S)-tetrahydro-2H-pyran-2-yl]propanoyl}amino)-2-methoxybenzoic acid], the pIC50 is 8.66 in assay [1] and 6.82 in assay [2].

With `COc1cn(C(CCOC2(C)CCC2)C(=O)Nc2ccc3nn(C)cc3c2)c(=O)cc1-c1cc(Cl)ccc1OCC(F)(F)F` (racemic) [Example 58, 2-[4-[5-Chloro-2-(2,2,2-trifluoroethoxy)phenyl]-5-methoxy-2-oxo-1-pyridyl]-4-(1-methylcyclobutoxy)-N-(2-methylindazol-5-yl)butanamide], the negative-log IC50 (pIC50) was 7.85 in assay [1] and 7.24 in assay [2].

With `COCCC(C(=O)Nc1ccc(C(N)=O)c(F)c1)n1cc(OC)c(-c2cc(Cl)ccc2OCC(F)(F)F)cc1=O` (racemic) [Example 3, 4-[(2-{4-[5-Chloro-2-(2,2,2-trifluoroethoxy)phenyl]-5-methoxy-2-oxopyridin-1(2H)-yl}-4-methoxybutanoyl)amino]-2-fluorobenzamide], the negative-log IC50 (pIC50) in assay [1] was 7.85; in assay [2], 7.00.

Regarding `COc1cn(C(CCOC(C)(C)C)C(=O)Nc2ccc(C(=O)O)cc2)c(=O)cc1-c1cc(Cl)ccc1OCC(F)(F)F` (single isomer, unassigned) [Example 8, 4-[(4-tert-Butoxy-2-{4-[5-chloro-2-(2,2,2-trifluoroethoxy)phenyl]-5-methoxy-2-oxopyridin-1(2H)-yl}butanoyl)amino]benzoic acid], the pIC50 was 9.03 in assay [1] and 7.72 in assay [2].

The values above are taken from US20180250280A1 (BAYER PHARMA AKTIENGESELLSCHAFT, priority 2015, published 2018).
